Source: paper PMC10241523 (The Journal of Venomous Animals and Toxins Including …, 2023)
Where two headings read alike, the source gives them in different places. Where a SMILES comes first, the peptide text is derived from it. Bridges are numbered along the chain shown (N, C = ends).

Assays:
[1] = system: sodium channel currents in rat DRG neurons; assay type: cell-based; conditions: 10 μM; n = 3
[2] = system: potassium channel currents in rat DRG neurons; assay type: cell-based; conditions: 10 μM
[3] = system: calcium channel currents in rat DRG neurons; assay type: cell-based; conditions: 10 μM
human NaV1.3 (hNaV1.3) = assay type: cell-based; conditions: 10 μM
human NaV1.7 (hNaV1.7) = assay type: cell-based; conditions: 10 μM
hNaV1.8 = assay type: cell-based, human
human CaV2.2 (hCaV2.2) = assay type: cell-based; conditions: 10 μM
Kunming mice = conditions: mouse, in vivo
human CaV1.2 (hCaV1.2) [4] = target: T1, human CaV1.2 (hCaV1.2) (Homo sapiens, UniProt Q13936); conditions: pH 7.4
ND7/23 cells = conditions: 48 h
human CaV1.2 (hCaV1.2) [5] = target: T1, human CaV1.2 (hCaV1.2); assay: cell-based; conditions: HEK293, read-out: inhibition of hCaV1.2 currents
calcium currents = conditions: cited from earlier work
[6] = system: voltage-gated calcium channels; conditions: cited from earlier work

T1 sequence (Q13936 whole entry, looked up): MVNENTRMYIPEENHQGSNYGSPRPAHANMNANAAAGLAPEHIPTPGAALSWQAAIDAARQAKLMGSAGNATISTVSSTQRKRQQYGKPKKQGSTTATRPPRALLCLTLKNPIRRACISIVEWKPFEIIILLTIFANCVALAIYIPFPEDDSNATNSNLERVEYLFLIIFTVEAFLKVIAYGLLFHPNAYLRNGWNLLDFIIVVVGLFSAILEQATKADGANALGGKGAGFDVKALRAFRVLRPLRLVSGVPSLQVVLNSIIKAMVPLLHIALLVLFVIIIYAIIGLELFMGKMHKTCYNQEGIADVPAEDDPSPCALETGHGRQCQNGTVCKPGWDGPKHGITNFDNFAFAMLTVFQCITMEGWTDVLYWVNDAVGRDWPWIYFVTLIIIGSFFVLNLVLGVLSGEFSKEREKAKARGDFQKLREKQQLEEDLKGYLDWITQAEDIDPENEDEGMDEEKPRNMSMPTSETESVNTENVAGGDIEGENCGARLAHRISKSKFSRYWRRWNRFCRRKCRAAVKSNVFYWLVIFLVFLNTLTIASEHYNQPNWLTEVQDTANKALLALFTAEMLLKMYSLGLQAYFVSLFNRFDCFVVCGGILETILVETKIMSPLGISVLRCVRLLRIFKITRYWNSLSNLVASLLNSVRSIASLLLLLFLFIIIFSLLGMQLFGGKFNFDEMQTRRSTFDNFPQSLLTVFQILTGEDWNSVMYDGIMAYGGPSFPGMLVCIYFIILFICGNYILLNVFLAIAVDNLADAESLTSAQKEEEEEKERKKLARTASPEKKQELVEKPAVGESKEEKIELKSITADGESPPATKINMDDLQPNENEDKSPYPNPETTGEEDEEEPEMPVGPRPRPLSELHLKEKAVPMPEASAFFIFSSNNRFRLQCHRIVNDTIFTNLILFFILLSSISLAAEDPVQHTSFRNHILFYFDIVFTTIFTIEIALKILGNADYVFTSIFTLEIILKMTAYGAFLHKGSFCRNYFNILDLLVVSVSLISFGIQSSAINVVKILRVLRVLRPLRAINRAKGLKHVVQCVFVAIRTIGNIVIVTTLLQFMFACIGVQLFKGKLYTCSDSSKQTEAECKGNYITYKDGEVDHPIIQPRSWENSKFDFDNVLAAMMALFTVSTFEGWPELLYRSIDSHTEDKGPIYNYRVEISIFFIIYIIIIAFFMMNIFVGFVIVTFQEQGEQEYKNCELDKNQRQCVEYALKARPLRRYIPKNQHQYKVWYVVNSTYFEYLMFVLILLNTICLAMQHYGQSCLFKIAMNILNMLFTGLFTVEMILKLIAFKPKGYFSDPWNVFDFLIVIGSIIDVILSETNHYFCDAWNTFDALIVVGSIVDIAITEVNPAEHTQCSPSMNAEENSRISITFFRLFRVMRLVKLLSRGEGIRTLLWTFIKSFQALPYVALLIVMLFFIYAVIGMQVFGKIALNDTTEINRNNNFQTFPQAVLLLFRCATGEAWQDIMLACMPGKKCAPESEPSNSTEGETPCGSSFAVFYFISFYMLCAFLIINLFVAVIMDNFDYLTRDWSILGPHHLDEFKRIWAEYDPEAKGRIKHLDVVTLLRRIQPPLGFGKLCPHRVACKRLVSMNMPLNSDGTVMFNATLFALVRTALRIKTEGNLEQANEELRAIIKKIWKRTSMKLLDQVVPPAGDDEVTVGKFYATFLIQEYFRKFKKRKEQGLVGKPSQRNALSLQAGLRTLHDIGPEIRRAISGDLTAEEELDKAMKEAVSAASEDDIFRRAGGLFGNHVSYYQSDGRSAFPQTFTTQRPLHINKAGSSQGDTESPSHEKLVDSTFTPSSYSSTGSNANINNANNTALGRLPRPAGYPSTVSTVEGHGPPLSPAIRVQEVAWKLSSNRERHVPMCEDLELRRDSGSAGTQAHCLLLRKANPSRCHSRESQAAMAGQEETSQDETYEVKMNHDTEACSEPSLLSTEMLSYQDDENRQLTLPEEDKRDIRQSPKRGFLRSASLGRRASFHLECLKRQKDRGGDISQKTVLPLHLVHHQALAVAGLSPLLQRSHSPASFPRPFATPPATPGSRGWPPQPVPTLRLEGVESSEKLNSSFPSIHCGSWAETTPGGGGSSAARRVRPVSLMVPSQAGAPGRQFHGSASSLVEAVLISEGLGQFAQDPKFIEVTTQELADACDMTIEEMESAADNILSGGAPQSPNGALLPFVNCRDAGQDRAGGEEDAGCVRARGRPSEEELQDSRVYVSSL

With CC[C@H](C)[C@H](NC(=O)[C@@H]1CSSC[C@@H]2NC(=O)[C@H](Cc3ccc(O)cc3)NC(=O)[C@H]([C@@H](C)CC)NC(=O)[C@H](C(C)C)NC(=O)CNC(=O)[C@H](CC(C)C)NC(=O)[C@H](CC(C)C)NC(=O)[C@H](CO)NC(=O)[C@H](C)NC(=O)[C@@H]3CCCN3C(=O)[C@@H]3CSSC[C@H](NC(=O)[C@H]([C@@H](C)CC)NC(=O)[C@H](CC(C)C)NC(=O)CNC(=O)[C@H](CCC(=O)O)NC(=O)[C@H](CSSC[C@H](NC(=O)[C@@H](N)CC(=O)O)C(=O)N[C@@H](Cc4c[nH]cn4)C(=O)N[C@@H](CCC(=O)O)C(=O)N[C@@H](CCCNC(=N)N)C(=O)N[C@@H](Cc4c[nH]c5ccccc45)C(=O)N[C@@H](CC(=O)O)C(=O)N[C@@H](Cc4c[nH]c5ccccc45)C(=O)N3)NC2=O)C(=O)N[C@@H](Cc2ccccc2)C(=O)N[C@@H]([C@@H](C)CC)C(=O)N[C@@H](C)C(=O)N[C@@H](Cc2ccccc2)C(=O)N1)C(=O)O [Tx6.7] (H-DCHERWDWCPASLLGVIYCCEGLICFIAFCI-OH; disulfide 2-20, 9-25, 19-30) the “inhibitory effects on the sodium currents in rat DRG neurons” value [1] was “no inhibitory effects”, the “shift in the current-voltage relationship, sodium currents” value [1] was “did not induce a shift in the current-voltage relationship” and the “inhibition of peak potassium currents” value [2] was 22.33 ± 7.81%. For the same compound, the “inhibition of peak calcium currents” value [3] was 59.29 ± 2.34%, the “shift in the current-voltage relationship, calcium currents” value ([3]; n = 3) was “did not induce a shift in the current-voltage relationship of calcium currents” and the “effects on hNaV1.3 currents” value (human NaV1.3 (hNaV1.3)) was “no obvious effects”. For the same compound, the “effects on hNaV1.7 currents” value (human NaV1.7 (hNaV1.7)) was “no obvious effects”, the “inhibition of hNaV1.8 currents” value (hNaV1.8) was 7.30 ± 3.38% and the “inhibition of hCaV2.2 currents” value (human CaV2.2 (hCaV2.2)) was 24.67 ± 0.91%. The pain threshold (Kunming mice) was “increased”, the “pain threshold increment percentage (maximum)” value (Kunming mice) was 98.91% and the “time of maximum analgesic effect” value (Kunming mice) was 2 h. For the same compound, the IC50 (human CaV1.2 (hCaV1.2) [4]) was 9.63 ± 1.12 µM, the “cytotoxicity against ND7/23 cells” value (ND7/23 cells) was “no significant cytotoxicity” and the Cell viability (ND7/23 cells; 0.01 μM) was 101.95%. It also gave a Cell viability (ND7/23 cells; 0.1 μM) of 105.01%, a Cell viability (ND7/23 cells; 1 μM) of 99.18% and a Cell viability (ND7/23 cells; 10 μM) of 98.60%. The Cell viability (ND7/23 cells; 100 μM) was 94.80%, the “Cell viability at all detected concentrations” value (ND7/23 cells; 100 μM) was “more than 94%” and the inhibition at 10 µM (human CaV1.2 (hCaV1.2) [5]) was 56.6 ± 3.2%.
In the case of Ziconotide, the “analgesic effect compared with Tx6.7” value (Kunming mice) is listed as “better analgesic effect than Tx6.7”, the “inhibition of calcium currents (ω family conotoxins)” value (calcium currents) is listed as “inhibiting calcium currents” and the “block of voltage-gated calcium channels (ω family)” value [6] is listed as “blockers of voltage-gated calcium channels”.
